Source: patent US20050003378A1, “Inhibitor of demethylase, antitumorigenic agent, and an in vitro assay for demethylase inhibitors” (priority 2002, published 2005)

Legend:
[1] = test system: A549 human lung carcinoma cells; experiment: Soft agar assay (anchorage independent growth), A549 cells; type: cell-based; details: single 24 hour treatment at 4 mM, colonies counted 21 days after plating
Method: (§1) For analysis of growth in soft agar, 3 ×10^3 cells were seeded in triplicate onto a six well dish in 4 ml of complete medium containing 0.33% agar solution at 37° C. (34). Cells were fed with 2 ml of medium twice weekly. The assay was performed in triplicate, and colonies were counted 21 days after plating for A549 cells, and 7 days after plating for HEK 293 cells.
(§2) AdoMetinhibits the tumorigenic properties of two different transformed cells lines, A549 human lung carcinoma cells and HEK 293 human embryonal kidney cells—It is well documented that a correlation exists between reduced intracellular AdoMet (either as a consequence of decreased folate intake or pharmacological intervention) and an increase in cell proliferation and tumorigenesis (2, 19). […] We therefore decided to test whether treatment with AdoMet could inhibit the transformation potential of HEK 293 cells, which were shown here to be responsive to AdoMet inhibition of demethylase. We also tested AdoMet effects on the transformed state of A549, a human lung non-small cell carcinoma cell line, to exclude the possibility that AdoMet effects are an idiosyncrasy of HEK 293 cells. Cells were treated for 24 hours with either AdoMet or AdoHcy at a concentration of 4 mM. An equal number of living cells were seeded onto soft agar to test their anchorage independent growth, an indicator of tumorigenesis in vitro. […]

[2] = test system: HEK 293 human embryonal kidney cells; experiment: Soft agar assay (anchorage independent growth), HEK 293 cells; type: cell-based; details: single 24 hour treatment at 4 mM, colonies counted 7 days after plating
Method: as §1, §2

human MBD2/dMTase = target: T1, human MBD2/dMTase (Homo sapiens, UniProt Q9UBB5); experiment: In vitro demethylation assay with recombinant MBD2/dMTase; type: biochemical; details: for conversion of methyl-dCMP to dCMP by MBD2/dMTase: 24 hours at 37° C.
T1 construct: made in house; host or cells: SF9 insect cells (baculovirus, transfer vector pBlueBacHis2 C)
Method: AdoMet preparations for in vitro studies—AdoMet was prepared as a 50 mM solution in distilled water either by freeze drying a 32 mM AdoMet solution, which contained 10% ethanol and 5 mM sulfuric acid (New England Biolabs) immediately before use or by dissolving lyophilized powder (SIGMA) in distilled water. To control for possible nonspecific effects of remnants of the AdoMet storage buffer we freeze dried a solution of 5 mM sulfuric acid and 10% ethanol under the same conditions as done with the AdoMet solution and added distilled water after lyophilizing. AdoHcy was purchased from SIGMA and dissolved in distilled water at a 50 mM concentration.
Purification of recombinant MBD2/dMTase from SF9 cells—A fragment containing human MBD2/dMTase was excised from pCR2.1-dMTase (10) with BamHI and XhoI and transferred to the Baculovirus expression transfer vector pBlueBacHis2 C (Invitrogen). PBlueBacHis2 C-MBD2/dMTase and Bac-N-Blue viral DNA were co-transfected into the SF9 insect cell line, and recombinant viruses were isolated, identified and amplified according to the manufacturer's protocol (Invitrogen) with no modifications. High titer P3 viral stocks were used for infections. Insect SF9 cells were cultured in spinner flasks to a density of 2.5×10^6 cells/ml in Grace's Insect Cell Culture Medium Supplemented (1×) from Life Technologies. For infection, 5×10^6 cells were plated in 10 cm tissue culture plates (Sarstedt) and allowed to settle and attach for 30 minutes. The culture medium was removed and was replaced with 10 ml of the same medium containing MBD2/dMTase virus at a multiplicity of infection of 10. The cells were cultured with the virus for 5 days at 27° C. and were then harvested by scraping in cold phosphate buffered saline. Cell pellets from 10 plates were frozen and kept at −70° C. until they were used for enzyme purification. Frozen pellets were thawed in 5 ml of lysis buffer (10 mM Tris-HCl pH 8.0, 5 mM MgCl2, 500 mM NaCl, 0.05% Tween 20, 10% glycerol and 10 mM imidazole) containing 1 μg/ml of the following protease inhibitors: aprotinin, leupeptin and pefablock. Protease inhibitors were added to all the solutions used in the purification. The homogenates were subjected to two cycles of freezing and thawing (5 minutes per step). DNA in the homogenate was sheered by passing through a 18.5 gauge needle 10 times. The extracts were then subjected to 15 cycles of sonication (10 seconds burst, 10 seconds gap per cycle at 20% of maximal output). The extracts were centrifuged at 10,000×g for 35 minutes. The supernatant was transferred into a fresh tube and was recentrifuged for additional 25 minutes at 15,000×g. The extract was filtered through a 5 micron filter to remove any particulate matter and the buffer was exchanged on a PD-10 buffer exchange column (Amersham Pharmacia) with buffer L (10 mM Tris-HCl pH 8.0, 10 mM MgCl2) containing 50 mM NaCl. Recombinant MBD2/dMTase was partially purified by Q-sepharose (Pharmacia) ion exchange chromatography. Q-sepharose beads (1 ml of swollen beads) were washed extensively and preequilibrated with buffer L containing 50 mM NaCl and divided into 3 equal aliquots. The cell extracts were sequentially bound three times to the 3 aliquots of Q-sepharose beads in batch in 15 ml tubes by shaking gently on a Nutator for 45 minutes at 4° C. […]

[3] = test system: CMV-GFP expression in HEK 293 cells; experiment: GFP expression from transfected CMV-GFP in HEK 293 cells (Western blot); details: for TSA induced GFP expression of methylated CMV-GFP: 0.3 μM TSA, increasing amounts of compound (mM)
[4] = test system: endogenous demethylase activity; experiment: Active demethylation of in vitro methylated CMV-GFP transiently transfected into HEK 293 cells (HpaII/MspI digestion, Southern blot); details: for percentage of methylated GFP remaining (inhibition of TSA induced active demethylation of methylated CMV-GFP): 0.3 μM TSA, 2, 4, 8 mM compound, harvested 72 hours post transfection

T1 sequence (Q9UBB5 150-411 limits assumed): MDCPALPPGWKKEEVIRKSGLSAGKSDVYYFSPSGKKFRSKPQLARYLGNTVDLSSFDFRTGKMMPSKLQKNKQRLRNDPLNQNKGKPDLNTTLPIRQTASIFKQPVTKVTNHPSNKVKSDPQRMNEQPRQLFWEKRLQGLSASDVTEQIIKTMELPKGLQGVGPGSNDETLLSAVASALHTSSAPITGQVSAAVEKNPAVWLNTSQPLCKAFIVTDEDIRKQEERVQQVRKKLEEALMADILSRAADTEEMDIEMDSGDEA

SMILES	colony formation in soft agar (anchorage independent growth) [1]	colony formation in soft agar (anchorage independent growth) [2]	conversion of methyl-dCMP to dCMP by MBD2/dMTase (human MBD2/dMTase; 2 mM AdoMet)	conversion of methyl-dCMP to dCMP by MBD2/dMTase (human MBD2/dMTase; AdoMet concentrations higher than 4 mM)	inhibition of demethylation attained (human MBD2/dMTase; maximum inhibition on dose curve, average of 3 independent experiments) [%]	TSA induced GFP expression of methylated CMV-GFP ([3]; methylated CMV-GFP)	induction of non-methylated GFP by TSA ([3]; unmethylated CMV-GFP, 0.3 μM TSA plus AdoMet)	percentage of methylated GFP remaining (inhibition of TSA induced active demethylation of methylated CMV-GFP) ([4]; methylated CMV-GFP)	de novo methylation of unmethylated CMV-GFP ([4]; unmethylated CMV-GFP, 8 mM AdoMet)	GFP expression of methylated CMV-GFP ([3]; methylated CMV-GFP, TSA alone)	demethylation of methylated CMV-GFP by endogenous demethylase activity ([4]; methylated CMV-GFP, 0.3 μM TSA alone)	effect of AdoHcy on inhibition of the demethylase reaction by AdoMet (competition experiment) (human MBD2/dMTase; increasing AdoHcy in presence of 10 mM AdoMet, up to tenfold concentration excess of AdoHcy)	inhibition of demethylation activity of MBD2/dMTase (human MBD2/dMTase; increasing concentrations of AdoHcy)
C[S+](CC[C@H](N)C(=O)[O-])C[C@H]1O[C@@H](n2cnc3c(N)ncnc32)[C@H](O)[C@@H]1O (some centres unmarked) [AdoMet, S-Adenosylmethionine]	no colonies are formed	only a minimal number of colonies	greatly reduced	abolished completely	100	decreased in a dose dependent fashion	no significant effect	increases in a dose dependent manner	does not get de novo methylated				
CC(/C=C/C(=O)NO)=C\[C@@H](C)C(=O)c1ccc(N(C)C)cc1 [TSA, Trichostatin A]										dramatic induction	nearly complete demethylation		
Nc1ncnc2c1ncn2[C@@H]1O[C@H](CSCC[C@H](N)C(=O)O)[C@@H](O)[C@H]1O [AdoHcy, S-adenosylhomocysteine]	does not inhibit	does not inhibit				no significant effect		insignificant effect				does not diminish inhibition	no inhibition
